The text below walks through data of US20120244094A1, “TETRAPEPTIDES FOR BRIGHTENING THE SKIN” (EVONIK GOLDSCHMIDT GMBH, priority 2009, published 2012).

The subject of one assay is age spots on the face. The assay is described as follows: Reduction of age spots on the face, half-side test, chromameter skin shade ITA°. It counts as in vivo, human. The following applies: applied twice daily for six weeks, FIG. 4; for ΔΔITA after 6-week application of the test formulations (reduction of age spots): 40 women, PKEK 0.004%, sodium ascorbyl phosphate 1.5%. The procedure:
In order to quantify such age spots, color measurements of the skin are carried out. For this purpose, chromameters are used. The chromameter measures the color values L*, a* and b*. These describe a three-dimensional color space, with the help of which every perceivable color can be described, cf. FIG. 2. The end points are black (L=0) and white (L=100). In order to be able to classify the skin shade, the parameters L* and b* are required. The skin shade ITA° is given in degrees and calculated using the following formula: ITA°=[arctan((L*−50)/b*)]*180/3.14159 By means of the following study, the aim is to investigate whether the tetrapeptide PKEK is able to visibly reduce age spots. The study was carried out as a half-side test. 40 women aged between 30 and 70 years were selected who had visible age spots on the face. They were each given 2 test formulations, one for the right half of the face and the other for the left half of the face. The test formulations had to be applied twice daily over a period of six weeks. [table] Prior to the start of the study and also after 6 weeks, the color of the skin directly on the age spot was measured as well as in the adjoining area. This was performed using a CR 400 chromameter from Minolta. The skin shade ITA° was calculated both for the age spot (ITA°A) and also the adjoining area (ITA°U) and the difference was calculated: ΔITA°=ITA°U−ITA°A The greater ΔITA°, the more visible the age spot.

For assay [1], the system named is melanin concentration in the skin of the forearm. The assay is described as follows: In vivo lightening (2-month study), melanin concentration measured with a Mexameter probe. The arrangement: species or system human. The following applies: 0.005% PKEK formulation, 20 subjects, compared to vehicle, FIG. 1. From the text: 20 subjects wore a test formulation without peptide or with 0.005% PKEK over a period of 8 weeks on one forearm in each case. Prior to the start of the study, and also after 8 weeks, a Mexameter probe (Courage & Khazaka, Cologne) was used to measure the melanin concentration both on the inside and also on the outside of the forearm. The measurement of the melanin concentration in the skin is based on the principle of absorption/reflection. The Mexameter probe emits light of a specific wavelength which is in agreement with the absorption maxima of the melanin in the skin. The light reflected by the skin is measured and placed relative to the emitted amount of light. The resulting measurement values are given as index numbers. [table]

In assay [2] the test system is evenness of the skin appearance of dark-skinned women (Fitzpatrick type VI-V). Kind of assay: Improvement in the skin appearance in dark-skinned people, visual assessment of evenness by an expert. The class given is in vivo, human. The following applies: 0.004% PKEK face cream twice daily, FIG. 5. Here is the method:
For the following study, dark-skinned women (Fitzpatrick type VI-V) were used. The Fitzpatrick scale serves to organize the different skin types:
In each case, 25 female subjects were given a face cream which comprised either the tetrapeptide PKEK or no active ingredient (vehicle). They had to apply this formulation twice daily over the entire face for a period of 12 weeks. Prior to the start of the study and also after 2, 4, 8 and 12 weeks, the evenness of the skin appearance was assessed visually by an expert.
A five-part scale was used for assessing the skin appearance:
5=no contrast, very even skin appearance 4=slight contrast, slightly irregular skin appearance 3=moderate contrast, irregular skin appearance 2=high contrast, highly irregular skin appearance 1=very high contrast, very highly irregular skin appearance

As to `O=C1O[C@H]([C@@H](O)CO)C([O-])=C1OP(=O)([O-])[O-].[Na+].[Na+].[Na+]` [sodium ascorbyl phosphate, reference compound], the “ΔΔITA after 6-week application of the test formulations (reduction of age spots)” value with age spots on the face is given as “visible reduction of the age spots”.
On to Pro Lys Glu Lys (PKEK), for which the “difference in the melanin values after 8 weeks compared to the starting value (decrease in skin brownness)” value in assay [1] (inside of the forearm) and in assay [1] (outside of the forearm) was “significantly greater decrease in skin brownness” each time. Moreover, the “ΔΔITA after 6-week application of the test formulations (reduction of age spots)” value in the assay on age spots on the face was “visible reduction of the age spots”. Besides, the “reduction of age spots, PKEK compared with sodium ascorbyl phosphate” value in the assay on age spots on the face (comparison of the single actives) is reported as “greater reduction than sodium ascorbyl phosphate”. The “improvement in the evenness of the skin appearance (five-part visual scale)” value in assay [2] (after 12 weeks, vehicle shows no further improvement) is reported as “significantly improves the skin appearance yet further”; in assay [2] (within the first 8 weeks), “visibly improved”. In addition, the “improvement in the evenness of the skin appearance compared with the vehicle” value in assay [2] (within the first 8 weeks, over the course of the time) is “increasingly greater over the course of the time than with the vehicle”.
